In brackets after ≈: the same amount, converted by molar mass. Where only a bound is given, the exact number is not on record here.

For this data set the following is noted: buffer; pH 7.4; 200.0 µM.
Turning to `Cc1ccc(C(C)NC(=S)NCc2ccc(F)cc2)cc1C` (configuration not stated), the kinetic solubility (usually solubility judged after dilution from a stock solution rather than from solid) was determined as 6.2 µg/mL (≈ 19.6 µM). Then `O=C(CCC1CCCC1)NCCCNC(=O)CCC1CCCC1`, with 36.2 µg/mL (≈ 112 µM); and `CC(=O)c1ccc(OC(C)C(=O)NC2CCCCC2C)cc1` (configuration not stated), with greater than 45.5 µg/mL. To `CC1CN(C(=O)COc2ccc3ccccc3c2)CC(C)O1` (configuration not stated) belongs greater than 44.9 µg/mL. To `NC(=O)CSc1nc2ccccc2c(=O)n1Cc1ccccc1` belongs 2.5 µg/mL (≈ 7.68 µM); to `COCCn1c(-c2ccc(F)cc2)nc2cccnc21`, 36.1 µg/mL (≈ 133 µM); to `Cc1ccc(SCC(=O)OCC(=O)NC2CCCCCC2)cc1`, greater than 50.3 µg/mL. On to `COc1ccc(CCC(=O)NCC(=O)OCc2ccccc2)cc1`, for which the solubility (kinetic) was greater than 49.1 µg/mL. To `N#Cc1c(-c2ccncc2)cc(-c2ccc(F)cc2)nc1N` belongs 0.5 µg/mL (≈ 1.72 µM); to `Cc1cc(C(=O)COC(=O)/C=C/c2cccc(F)c2)c(C)n1C`, less than 0.7 µg/mL.

`O=c1cc(CN2CCN(S(=O)(=O)c3cccc(Cl)c3)CC2)c2ccc(O)cc2o1` came in with a solubility (kinetic) of 13.3 µg/mL (≈ 30.6 µM). As for `COc1cccc(C(=O)Nc2c(F)cccc2F)c1`, the solubility (kinetic) is greater than 39.5 µg/mL. To `NCCc1nc2ccccc2s1` belongs 23.2 µg/mL (≈ 130 µM); to `COc1ccccc1NC(=O)c1ccc(S(=O)(=O)N(C)c2ccccc2OC)cc1`, 7 µg/mL (≈ 16.4 µM); to `Cc1cnc(NC(=O)c2ccc(-c3ccc([N+](=O)[O-])cc3)o2)s1`, 1.9 µg/mL (≈ 5.77 µM). Consider `COc1ccc(-c2noc(CN(C)C(=O)c3ccco3)n2)cc1`, for which the solubility (kinetic) is 42.7 µg/mL (≈ 136 µM).

`CCOC(=O)c1csc(N)c1-c1ccc([N+](=O)[O-])cc1` showed a solubility (kinetic) of 5.5 µg/mL (≈ 18.8 µM). To `CC(=O)c1c(C)[nH]c(C(=O)N2CCCC(C)C2)c1C` (configuration not stated) belongs greater than 39.4 µg/mL; to `Cn1cccc1C(=O)OCC(=O)Nc1ccc2[nH]c(=O)[nH]c2c1`, 11.1 µg/mL (≈ 35.3 µM).

In turn, `Cc1ccc(S(=O)(=O)N2CCCCC2)cc1NC(=O)c1ccccc1Cl` had a kinetic solubility of 23.2 µg/mL (≈ 59 µM). This solubility kinetic lies about 2.1-fold higher than the previous one. Turning to `O=C(O)C1C2C=CC(C2)C1C(=O)Nc1cccc(Cl)c1` (configuration not stated), the kinetic solubility was 42.8 µg/mL (≈ 147 µM).

`O=C(COC(=O)/C=C/c1cccc([N+](=O)[O-])c1)Nc1cccnc1Cl` registered a kinetic solubility of 2.1 µg/mL (≈ 5.81 µM). For `Cn1cccc1/C=N/NC(=O)CSc1nc2ccccc2[nH]1`, the solubility (kinetic) is greater than 47 µg/mL. On to `CCOc1cc(Cl)c(CNCCCN2CCOCC2)cc1OC`, for which the kinetic solubility was greater than 51.4 µg/mL. To `COC(=O)c1nc2ccccn2c1F` belongs greater than 29.1 µg/mL; to `O=C(Nc1ccc(F)cc1)c1ccc2[nH]c(=O)c(=O)[nH]c2c1`, greater than 44.9 µg/mL; to `NS(=O)(=O)c1ccc(Nc2c([N+](=O)[O-])cncc2[N+](=O)[O-])cc1`, 50.4 µg/mL (≈ 149 µM). To `O=CC(Cl)P(=O)(N1CCOCC1)N1CCOCC1` (configuration not stated) belongs 32.5 µg/mL (≈ 110 µM); to `CC(=O)c1cn(-c2ccc(Cl)cc2)c(=O)[nH]c1=O`, 33.7 µg/mL (≈ 127 µM); to `O=C(Nc1ccc(Cl)c(S(=O)(=O)N2CCOCC2)c1)c1ccc2c(c1)OCO2`, 2.6 µg/mL (≈ 6.12 µM). `Cc1nnc(SCC(=O)N(C)CC(=O)Nc2ccccc2Cl)s1` yielded a kinetic solubility greater than 55.6 µg/mL.

`O=[N+]([O-])c1ccc(NCCN2CCOCC2)c([N+](=O)[O-])c1` displayed a kinetic solubility greater than 44.4 µg/mL.

For `COc1ccc(C(=O)CCC(=O)Nc2cccnc2)c(OC)c1`, the solubility (kinetic) is greater than 47.2 µg/mL.

For the molecule `COc1ccc(C(=O)c2oc3ccc(OC)cc3c2NC(C)=O)cc1`, the solubility (kinetic) was less than 0.7 µg/mL. Then `COc1ccccc1NS(=O)(=O)c1cc(NC(=O)c2ccc(Cl)nc2)ccc1N1CCCC1`, with 2.1 µg/mL (≈ 4.31 µM); and `CN1CCCN(c2ccc([N+](=O)[O-])cc2)CC1`, with greater than 35.3 µg/mL. To `O=C(O)C1CCCNC1` (configuration not stated) belongs 0.4 µg/mL (≈ 3.1 µM); to `O=C1c2ccccc2NC(c2cccc(O)c2)N1Cc1ccco1` (configuration not stated), greater than 48.1 µg/mL.

Consider `O=C(NC1CCCCC1)c1cc(-c2ccccc2O)on1`, for which the kinetic solubility is 0.6 µg/mL (≈ 2.1 µM). For `COc1ccc(CC(=O)N2CCc3ccccc3C2)cc1`, the solubility (kinetic) was 39.6 µg/mL (≈ 141 µM). This solubility kinetic is about 66-fold higher than that of the molecule before.

Consider `O=C(NC1CCCCCCC1)c1cccc(Cl)c1`, for which the solubility (kinetic) stood at 0.9 µg/mL (≈ 3.39 µM). To `Cc1cc(C(=O)CCC(=O)Nc2ncccc2C)c(C)s1` belongs 26.1 µg/mL (≈ 86.3 µM); to `C=CCn1c(CCC)nc2ccccc21`, greater than 30 µg/mL; to `CCc1nc2ccccc2c(=O)n1-c1ccccc1OC`, greater than 42 µg/mL. In the case of `S=C(NCCc1cccc(Cl)c1)NCc1ccccc1`, the kinetic solubility is 14.9 µg/mL (≈ 48.9 µM). Then `COC(=O)c1cccc(NC(=O)c2cccc([N+](=O)[O-])c2)c1`, with 3.8 µg/mL (≈ 12.7 µM). `Cc1ccc(CN(C)C(=O)CCNS(=O)(=O)c2ccccc2)o1` returned a solubility (kinetic) greater than 50.5 µg/mL.

In the case of `COc1cc(C)ccc1Oc1nc(-c2ccccc2O)nc2ccccc12`, the solubility (kinetic) is less than 0.4 µg/mL.

In the case of `COc1ccc(-c2csc(-c3ccccc3)n2)c(OC)c1`, the kinetic solubility was 3.3 µg/mL (≈ 11.1 µM). Turning to `CC(NC(=O)c1cccs1)C1CCCO1` (configuration not stated), the kinetic solubility was greater than 33.8 µg/mL. In turn, `c1ccc(-c2ccc(C(c3ccccc3)n3ccnc3)cc2)cc1` (configuration not stated) gave a solubility (kinetic) of 0.7 µg/mL (≈ 2.26 µM).

As for `CCOC(=O)C1=C(C)N(C)C(=S)N(C)C1c1ccc(OC)cc1` (configuration not stated), the solubility (kinetic) came out at 19.8 µg/mL (≈ 59.2 µM).

The values above are taken from PubChem BioAssay AID1996.
